A short description of data set [1]: Particle size of nanoparticle suspension after small scale high energy milling (microscopy, laser light diffraction). It counts as physicochemical.
For data set [2] the following is noted: PVP K29/32 and SLS 5:2:0.05, 6000 rpm. As to the method:
The mixture was milled in a NanoMill™ (Elan Drug Delivery, Inc.). Using a media load of 100% at the maximum rpm of 6000 maximized the energy input.
Further calculations were based on a bulk density of 0.61 g/ml for PolyMill™ 500 μ media (Dow Chemical) and a void volume of 40%. Since the amounts were low and mixing difficult, PVP and SLS were prepared as 20% and 5% stock solutions, respectively. The calculations for milling in a 10 mL, 18 mL, and 26 mL milling chambers are summarized in the following chart: […]

Data set [3] in a line: Quality of milled dispersion by photomicrography. In kind it is physicochemical. As to the method:
Analysis of resultant particle size was via photomicrography.
[…] The composition was then milled in a 10 mL chamber of a NanoMill™.

Where [4] appears, read: 10 mL chamber, 25 mg naproxen, after 1 hr.

Read-outs that look alike come from different tables or passages of the source.

Take `COc1ccc2cc([C@H](C)C(=O)O)ccc2c1` [Naproxen]: the “Particle Size” value came to 159 nm in data set [1] (50 mg milled, 15 min milling time) and 147 nm in data set [1] (200 mg milled, 60 min milling time). Besides, in data set [1] (<50 mg of drug milled 15 min, small-volume high energy mill, unimodal distribution), the “mean diameter of nanoparticle suspension” value was “less than 200 nm”. Besides, in data set [2] (setting [4]), the “mean particle size (bimodal peak)” value is listed as 1496 nm. In data set [2] (setting [4]), the “median particle size (bimodal peak)” value worked out at 354 nm. Besides, the “single peak mean particle size” value in data set [2] (18 mL chamber, 45 mg naproxen) was found to be 314 nm; in data set [2] (26 mL chamber, 65 mg naproxen) it was 630 nm. The dispersion quality result is “well dispersed nano-suspension” in data set [3] (5 mg, 10 mL chamber, PVP K29/32 and SLS 5:2:0.05); “reasonable naproxen dispersion” in data set [3] (25 mg, 10 mL chamber, 15 min); “reasonable naproxen dispersion” in data set [3] (25 mg, 18 mL chamber, 15 min); “over-milled and aggregated” in data set [3] (25 mg, 18 mL chamber, 30 min); “excellent homogeneity” in data set [3] (25 mg, 26 mL chamber, 5 min); “clearly degenerating” in data set [3] (25 mg, 26 mL chamber, 15 min).
On to `CCOC(=O)CCCCCOC(=O)c1c(I)c(NC(C)=O)c(I)c(NC(C)=O)c1I` [Photogen, 6-ethoxy-6-oxohexyl-3,5-bis(acetamido)-2,4,6-triiodobenzoate], for which, in data set [3] (10 mg, Pluronic F-108 at 5:2, 10 mL chamber, 5 to 30 min), the resultant particle size was “predominantly sub-micron”.

For the origin of these results see US20030087308A1, “Method for high through put screening using a small scale mill or microfluidics” (Elan Pharma International Limited, priority 2001, published 2003).
